This is an account of results in patent publication US8993565B2, “(6-oxo-1,6-dihydropyrimidin-2-yl)amide derivatives, preparation thereof and pharmaceutical use thereof as AKT(PKB) phosphorylation inhibitors” (Sanofi, priority 2009, dated 2015).

In assay [1] the test system is AKT protein phosphorylated on serine 473 (P-AKT-S473). The assay can be described thus: Study of pAKT expression in PC3 human prostate carcinoma cells measured by the MSD Multi-spot Biomarker Detection technique (Test B). Conditions: PC-3, inhibition of AKT phosphorylation (P-AKT-S473), MSD sandwich immunoassay, 1 to 2 h incubation, absolute IC50, mean of 2 experiments. It is filed as cell-based. In outline: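 Lysate P-AKT-S473 quantified by MSD electrochemiluminescent sandwich immunoassay; inhibition vs DMSO and cell-free background, IC50 averaged over 2 experiments.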

Assay [2] deals with AKT protein phosphorylated on serine 473 (pAKT-S473). The assay can be described thus: Study of pAKT expression in PC3 human prostate carcinoma cells measured by western blotting (Test A). It is filed as cell-based. Conditions: PC-3, inhibition of AKT phosphorylation (pAKT-S473), 1 to 2 hours incubation, absolute IC50, mean of two experiments. How it is done: The inhibitory activity of the molecules on AKT phosphorylation is measured either by western blotting using the technique described below, or by the MSD Multi-spot Biomarker detection technique from Meso Scale Discovery also described below.
Study of pAKT Expression in PC3 Human Prostate Carcinoma Cells Measured by Western Blotting (Test A):
On day 2, the cells are incubated in the presence or absence of the test products for 1 to 2 hours at 37° C. in the presence of 5% CO2. The molecules, diluted in dimethyl sulphoxide (DMSO Sigma #D2650), are added from a 10-times concentrated stock solution, the final percentage of DMSO being 0.1%. The molecules are tested either at a single concentration of less than or equal to 10 μM, or at increasing concentrations in a range that can extend from less than 1 nM to 10 μM.
After this incubation, the cells are lysed for the preparation of the proteins.
The lysate is centrifuged for 10 min at 6000 rpm. 155 μl of supernatant are recovered. 150 μl are incubated for denaturation for 5 min at 95° C. in the presence of 4× NuPAGE LDS Sample Buffer diluted 4-fold (InVitrogen ref NP0007) and of 10× NuPAGE Sample Reducing Agent diluted 10-fold (InVitrogen ref NP0009). These samples are then frozen at −20° C.
The gel is then transferred on to an Invitrolon PVDF membrane (Invitrogen #LC2007) permeabilised beforehand and for a few seconds in ethanol (Ethanol Fischer Scientific #E/0600DF/15).
The transfer is carried out in a Biorad tank at 30 volts overnight or at 60 volts for 3 hours, in the presence of 20× NUPAGE Transfer Buffer diluted 20-fold (InVitrogen ref NP0006).
The membrane is then saturated in saturating solution composed of TBS (10× Tris Buffered Saline, Sigma #T5912, diluted 10-fold), 0.1% Tween (Sigma #P5927) and 3% BSA (Bovine Albumin Serum Fraction V, Sigma #A4503) for 6 h after overnight transfer or else for 1 h after transfer for a period of 3 h.
Two rinses for min in washing solution composed of TBS and 0.1% Tween 20 are carried out before hybridisation of the secondary antibodies.
The secondary antibodies are diluted 110000th for the rabbit anti-Mouse IgG HRP antibody (W402 Promega) and to 110000th for the goat anti-Rabbit IgG HRP antibody (W401 Promega) in saturating solution, and then shaken for 1 h at ambient temperature.
Two rinses for 30 min in washing solution are carried out and then a rinse for 5 min in H2O is carried out in order to eliminate the remaining Tween 20.
The luminescence is read with the FujiFilm device (Ray Test).
The FUJI device measures the total luminescence signal obtained (AU) for each band selected. It then subtracts the background noise (BG) proportional to the size of the band selected (Area), said background noise being calculated from a specific background noise band, with a view to obtaining the specific signal (AU-BG) for each band. The band obtained in the absence of product and in the presence of 0.1% DMSO is considered to be the 100% signal. The software calculates the % specific activity (Ratio) obtained for each band selected as a function of this 100% signal. The percentage inhibition is calculated for each concentration according to the formula (100%−Ratio).
Two independent experiments make it possible to calculate the mean of the percentages of inhibition obtained at a given concentration for the products tested only at one concentration.
Two independent experiments make it possible to calculate the mean of the IC50s.

For `O=C(Cc1nc(N2CCOCC2)cc(=O)[nH]1)Nc1cccc(F)c1` [Example 14, N-(3-fluorophenyl)-2-[4-(morpholin-4-yl)-6-oxo-1,6-dihydropyrimidin-2-yl]acetamide], the half-maximal inhibitory concentration (IC50) in assay [1] was 74 nM; in assay [2] it was 570 nM.
In turn, `O=C(Cc1nc(N2CCOCC2)cc(=O)[nH]1)Nc1cccc(O)c1` [Example 32, N-(3-hydroxyphenyl)-2-[4-(morpholin-4-yl)-6-oxo-1,6-dihydropyrimidin-2-yl]acetamide] yielded an IC50 in assay [2] of 3640 nM.
`O=C(Cc1nc(N2CCOCC2)cc(=O)[nH]1)Nc1ccc(F)c(Br)c1` [Example 33, N-(3-bromo-4-fluorophenyl)-2-[4-(morpholin-4-yl)-6-oxo-1,6-dihydropyrimidin-2-yl]acetamide] yielded an IC50 in assay [2] of 93 nM.
Regarding `O=C(Cc1nc(N2CCOCC2)cc(=O)[nH]1)Nc1cc(F)c(F)c(F)c1` [Example 34, 2-[4-(morpholin-4-yl)-6-oxo-1,6-dihydropyrimidin-2-yl]-N-(3,4,5-trifluorophenyl)acetamide], in assay [2], the IC50 came out at 609 nM.
In turn, `O=C(Cc1nc(N2CCOCC2)cc(=O)[nH]1)Nc1cccc(OC(F)F)c1` [Example 38, N-[3-(difluoromethoxy)phenyl]-2-[4-(morpholin-4-yl)-6-oxo-1,6-dihydropyrimidin-2-yl]acetamide] registered an IC50 in assay [2] of 480 nM.
Consider `COc1cc(NC(=O)C(C)c2nc(N3CCOCC3)cc(=O)[nH]2)ccc1F` (stereo not drawn) [Example 39, N-(4-fluoro-3-methoxyphenyl)-2-[4-(morpholin-4-yl)-6-oxo-1,6-dihydropyrimidin-2-yl]propanamide], for which, in assay [2], half-maximal inhibition (IC50) was put at 1760 nM.
In the case of `Cc1cccc(NC(=O)Cc2nc(N3CCOCC3)cc(=O)[nH]2)c1C` [Example 40, N-(2,3-dimethylphenyl)-2-[4-(morpholin-4-yl)-6-oxo-1,6-dihydropyrimidin-2-yl]acetamide], the IC50 in assay [2] turned out to be 1490 nM.
As for `Cc1cccc(NC(=O)Cc2nc(N3CCOCC3)cc(=O)[nH]2)c1F` [Example 41, N-(2-fluoro-3-methylphenyl)-2-[4-(morpholin-4-yl)-6-oxo-1,6-dihydropyrimidin-2-yl]acetamide], the IC50 in assay [1] is 60 nM; in assay [2], 290 nM.
With `O=C(Cc1nc(N2CCOCC2)cc(=O)[nH]1)Nc1cccc2ocnc12` [Example 42, N-(1,3-benzoxazol-4-yl)-2-[4-(morpholin-4-yl)-6-oxo-1,6-dihydropyrimidin-2-yl]acetamide], the IC50 was found to be 148 nM in assay [1] and 400 nM in assay [2].
For `O=C(Cc1nc(N2CCOCC2)cc(=O)[nH]1)Nc1cccc(OC(F)(F)F)c1` [Example 43, 2-[4-(morpholin-4-yl)-6-oxo-1,6-dihydropyrimidin-2-yl]-N-[3-(trifluoromethoxy)phenyl]acetamide], half-maximal inhibition in assay [2] (IC50) required 549 nM.
Take `CC(C)Oc1cccc(NC(=O)Cc2nc(N3CCOCC3)cc(=O)[nH]2)c1` [Example 44, 2-[4-(morpholin-4-yl)-6-oxo-1,6-dihydropyrimidin-2-yl]-N-[3-(propan-2-yloxy)phenyl]acetamide]: the IC50 in assay [2] was 308 nM. Against the preceding compound, the IC50 is about 1.8-fold lower.
In assay [2], `COc1cc(F)ccc1NC(=O)Cc1nc(N2CCOCC2)cc(=O)[nH]1` [Example 45, N-(4-fluoro-2-methoxyphenyl)-2-[4-(morpholin-4-yl)-6-oxo-1,6-dihydropyrimidin-2-yl]acetamide] returned an IC50 of 261 nM. This IC50 and that of the compound before are within 1.5-fold of each other.
In assay [2], `O=C(Cc1nc(N2CCOCC2)cc(=O)[nH]1)Nc1ccc(F)c(C(F)(F)F)c1` [Example 47, N-[4-fluoro-3-(trifluoromethyl)phenyl]-2-[4-(morpholin-4-yl)-6-oxo-1,6-dihydropyrimidin-2-yl]acetamide] gave an IC50 of 346 nM.
`C#Cc1cccc(NC(=O)Cc2nc(N3CCOCC3)cc(=O)[nH]2)c1` [Example 48, N-(3-ethynylphenyl)-2-[4-(morpholin-4-yl)-6-oxo-1,6-dihydropyrimidin-2-yl]acetamide]: the IC50 in assay [2] stood at 184 nM.
For `O=C(Cc1nc(N2CCOCC2)cc(=O)[nH]1)Nc1ccc(F)cc1O` [Example 50, N-(4-fluoro-2-hydroxyphenyl)-2-[4-(morpholin-4-yl)-6-oxo-1,6-dihydropyrimidin-2-yl]acetamide], it took 6720 nM to reach half-maximal inhibition in assay [2] (IC50). Compared with the last compound, the IC50 is about 37-fold higher.
With `O=C(Cc1nc(N2CCOCC2)cc(=O)[nH]1)N1CCc2ccccc21` [Example 51, 2-[2-(2,3-dihydro-1 H-indol-1-yl)-2-oxoethyl]-6-(morpholin-4-yl)pyrimidin-4(3H)-one], in assay [2], the IC50 was determined as 133 nM.
For `O=C(Cc1nc(N2CCOCC2)cc(=O)[nH]1)Nc1ccc(F)c(C2CC2)c1` [Example 52, N-(3-cyclopropyle-4-fluorophenyl)-2-[4-(morpholin-4-yl)-6-oxo-1,6-dihydropyrimidin-2-yl]acetamide], in assay [2], it took 227 nM to reach half-maximal inhibition (IC50).
On to `O=C(Cc1nc(N2CCOCC2)cc(=O)[nH]1)Nc1ccc(F)c(OC(F)(F)F)c1` [Example 54, N-[4-fluoro-3-(trifluoromethoxy)phenyl]-2-[4-(morpholin-4-yl)-6-oxo-1,6-dihydropyrimidin-2-yl]acetamide], for which the IC50 in assay [1] was 67 nM; in assay [2] it was 807 nM.
As to `O=C(Cc1nc(N2CCOCC2)cc(=O)[nH]1)Nc1cccc(OCCO)c1` [Example 55, N-[3-(2-hydroxyethoxy)phenyl]-2-[4-(morpholin-4-yl)-6-oxo-1,6-dihydropyrimidin-2-yl]acetamide], in assay [2], 10000 nM corresponded to half-maximal inhibition (IC50).
In turn, `O=C(Cc1nc(N2CCOCC2)cc(=O)[nH]1)Nc1cccc(I)c1` [Example 56, N-(3-iodophenyl)-2-[4-(morpholin-4-yl)-6-oxo-1,6-dihydropyrimidin-2-yl]acetamide] returned an IC50 in assay [2] of 137 nM.
In assay [2], `COC(=O)c1cc(NC(=O)Cc2nc(N3CCOCC3)cc(=O)[nH]2)ccc1F` [Example 57, methyl 2-fluoro-5-({[4-(morpholin-4-yl)-6-oxo-1,6-dihydropyrimidin-2-yl]acetyl}amino)benzoate] showed an IC50 of 5860 nM.
As to `CCOc1cccc(NC(=O)Cc2nc(N3CCOCC3)cc(=O)[nH]2)c1` [Example 58, N-(3-ethoxyphenyl)-2-[4-(morpholin-4-yl)-6-oxo-1,6-dihydropyrimidin-2-yl]acetamide], the IC50 in assay [1] came to 71 nM; in assay [2], 760 nM.
On to `O=C(Cc1nc(N2CCOCC2)cc(=O)[nH]1)N1CCOc2ccccc21` [Example 62, 2-[2-(2,3-dihydro-4H-1,4-benzoxazin-4-yl)-2-oxoethyl]-6-(morpholin-4-yl)pyrimidin-4(3H)-one], for which it took 530 nM to reach half-maximal inhibition in assay [2] (IC50).
Turning to `O=C(Cc1nc(N2CCOCC2)cc(=O)[nH]1)Nc1ccc(F)c([N+](=O)[O-])c1` [Example 63, N-(4-fluoro-3-nitrophenyl)-2-[4-(morpholin-4-yl)-6-oxo-1,6-dihydropyrimidin-2-yl]acetamide], in assay [2], 6160 nM corresponded to half-maximal inhibition (IC50).
Turning to `O=C(Cc1nc(N2CCOCC2)cc(=O)[nH]1)Nc1cc(F)ccc1O` [Example 65, N-(5-fluoro-2-hydroxyphenyl)-2-[4-(morpholin-4-yl)-6-oxo-1,6-dihydropyrimidin-2-yl]acetamide], it took 6460 nM to reach half-maximal inhibition in assay [2] (IC50). This IC50 and that of the compound before are within 1.5-fold of each other.
Take `Cn1c(CC(=O)Nc2ccc(F)cc2)nc(N2CCOCC2)cc1=O` [Example 67, N-(4-fluorophenyl)-2-[1-methyl-4-(morpholin-4-yl)-6-oxo-1,6-dihydropyrimidin-2-yl]acetamide]: 2210 nM corresponded to half-maximal inhibition in assay [2] (IC50).
As to `Cn1c(CC(=O)Nc2ccc(F)c(Cl)c2)nc(N2CCOCC2)cc1=O` [Example 68, N-(3-chloro-4-fluorophenyl)-2-[1-methyl-4-(morpholin-4-yl)-6-oxo-1,6-dihydropyrimidin-2-yl]acetamide], the 50% inhibitory concentration (IC50) in assay [1] was 79 nM; in assay [2], 202 nM.
